Values joined by “and” are separate entries in the source; they are usually repeats but may differ in a detail not shown here. Equal values may be shown once.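 Each compound was tested at five concentrations against cells in 96-well plates for 48 hours. At the GI50, growth is halved. TGI: total growth inhibition.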 Where a SMILES comes first, the peptide text is derived from it. The star is where a group is joined. Boc = CC(C)(C)OC(=O)*
tested on: OVCAR-3 ovarian; test: inhibition of tumour cell growth, NCI panel, 48 h

Structure (SMILES) | GI50 | TGI
Cc1ccc(Nc2oc(-c3ccccc3)nc2[P+](c2ccccc2)(c2ccccc2)c2ccccc2)cc1 | 0.299 µM | 1 µM
CS(=O)(=O)Nc1cc(-c2ccc3ncnc(Nc4c(Cl)ccc5c4OCO5)c3c2)cnc1Cl | 0.127 µM | 0.925 µM
COc1ccccc1Nc1ncc(-c2ccccc2)o1 | > 25 µM | > 25 µM
Nc1ccn(C2OC(CO)C(O)C2O)c(=O)n1 (stereo unspecified) | 3.74 µM | > 100 µM and 500 µM and > 500 µM
CN(C)c1ccc(N=Nc2ccccn2)c(O)c1 | 0.3 µM | > 100 µM
O=C(NNc1ccccc1)C(=O)NNc1ccccc1 | 17.7 µM | > 100 µM
Nc1c(C(=O)c2ccccc2)cnn1-c1ccc(F)cc1 | > 25 µM | > 25 µM
CC1(C)CC(=O)CC(=Nc2ccc([N+](=O)[O-])cc2)C1 | – | > 100 µM
C#Cc1nc(Nc2cc(C)[nH]n2)c2ccccc2n1 | 0.242 µM | 0.52 µM
COC(=O)C(C)NC(=O)C(CCSC)NC(=O)C(Cc1ccccc1)NC(=O)OC(C)(C)C (stereo not drawn) (Boc-Phe-Met-Ala-OMe; configuration not given here) | 26.6 µg/mL | 52.7 µg/mL and > 100 µM
C/C(=N\NC(=S)N1CCCCCC1)c1ccccn1 | – | 0.172 µM
Cc1nc2cc(Nc3nc(Nc4ccc(F)cc4)nc(-c4cccs4)n3)ccc2n1Cc1ccccc1 | 4.87 µM | 38.1 µM
Oc1ccc2ccccc2c1N=Nc1ccc(Br)cc1 | – | > 100 µM
CC(C)=CCc1cc2c(cc1O)OC[C@H]1c3cc4c(cc3O[C@@H]21)OCO4 | – | > 100 µM
COc1cc2c3c(c1OC)-c1cc4c(cc1CC3(C#N)N(C(=O)c1ccccc1)CC2)OCO4 (stereo unspecified) | – | > 86.6 µM
CCOC(=O)c1c(-c2ccc(OC)cc2)c(C#N)c2c(C#N)c(N)nn2c1N | 3.28 µM | 14.2 µM
COC(=O)C1=CN(CC2=CC(=O)C(C)=CC2=O)C=C(C(=O)OC)C1c1cccc(OC)c1 | 3.51 µM | 12.3 µM

tested on: SF-268 CNS; test: inhibition of tumour cell growth, NCI panel, 48 h

Structure (SMILES) | GI50 | TGI [µM]
Cc1ccc(Nc2oc(-c3ccccc3)nc2[P+](c2ccccc2)(c2ccccc2)c2ccccc2)cc1 | 1560 nM | 4.9
CS(=O)(=O)Nc1cc(-c2ccc3ncnc(Nc4c(Cl)ccc5c4OCO5)c3c2)cnc1Cl | 119 nM | 1.48
COc1ccccc1Nc1ncc(-c2ccccc2)o1 | > 25000 nM | > 25
Nc1ccn(C2OC(CO)C(O)C2O)c(=O)n1 (stereo unspecified) | 1010 nM | > 500
CN(C)c1ccc(N=Nc2ccccn2)c(O)c1 | 318 nM | > 100
O=C(NNc1ccccc1)C(=O)NNc1ccccc1 | 1630 nM | > 100
Nc1c(C(=O)c2ccccc2)cnn1-c1ccc(F)cc1 | > 25000 nM | > 25
CC1(C)CC(=O)CC(=Nc2ccc([N+](=O)[O-])cc2)C1 | – | > 100
C#Cc1nc(Nc2cc(C)[nH]n2)c2ccccc2n1 | 313 nM | 1.11
COC(=O)C(C)NC(=O)C(CCSC)NC(=O)C(Cc1ccccc1)NC(=O)OC(C)(C)C (stereo not drawn) (Boc-Phe-Met-Ala-OMe; configuration not given here) | 42.3 µg/mL | > 100
C/C(=N\NC(=S)N1CCCCCC1)c1ccccn1 | – | 4.19
Cc1nc2cc(Nc3nc(Nc4ccc(F)cc4)nc(-c4cccs4)n3)ccc2n1Cc1ccccc1 | 9740 nM | > 100
Oc1ccc2ccccc2c1N=Nc1ccc(Br)cc1 | – | > 100
CC(C)=CCc1cc2c(cc1O)OC[C@H]1c3cc4c(cc3O[C@@H]21)OCO4 | – | > 100
COc1cc2c3c(c1OC)-c1cc4c(cc1CC3(C#N)N(C(=O)c1ccccc1)CC2)OCO4 (stereo unspecified) | – | > 91
CCOC(=O)c1c(-c2ccc(OC)cc2)c(C#N)c2c(C#N)c(N)nn2c1N | 5390 nM | 73.7
COC(=O)C1=CN(CC2=CC(=O)C(C)=CC2=O)C=C(C(=O)OC)C1c1cccc(OC)c1 | 12100 nM | 30.8

tested on: SK-MEL-5 melanoma; test: inhibition of tumour cell growth, NCI panel, 48 h

Structure (SMILES) | GI50 [nM] | TGI
Cc1ccc(Nc2oc(-c3ccccc3)nc2[P+](c2ccccc2)(c2ccccc2)c2ccccc2)cc1 | 493 | 1.4 µM
CS(=O)(=O)Nc1cc(-c2ccc3ncnc(Nc4c(Cl)ccc5c4OCO5)c3c2)cnc1Cl | 191 | 0.465 µM
COc1ccccc1Nc1ncc(-c2ccccc2)o1 | > 25000 | > 25 µM
Nc1ccn(C2OC(CO)C(O)C2O)c(=O)n1 (stereo unspecified) | 2890 | –
CN(C)c1ccc(N=Nc2ccccn2)c(O)c1 | 433 | 3.35 µM
O=C(NNc1ccccc1)C(=O)NNc1ccccc1 | 10800 | > 100 µM
Nc1c(C(=O)c2ccccc2)cnn1-c1ccc(F)cc1 | > 25000 | > 25 µM
CC1(C)CC(=O)CC(=Nc2ccc([N+](=O)[O-])cc2)C1 | – | > 100 µM
C#Cc1nc(Nc2cc(C)[nH]n2)c2ccccc2n1 | 139 | 0.28 µM
COC(=O)C(C)NC(=O)C(CCSC)NC(=O)C(Cc1ccccc1)NC(=O)OC(C)(C)C (stereo not drawn) (Boc-Phe-Met-Ala-OMe; configuration not given here) | – | > 100 µM
C/C(=N\NC(=S)N1CCCCCC1)c1ccccn1 | 20.9 | 1.09 µM and 0.741 µM
Cc1nc2cc(Nc3nc(Nc4ccc(F)cc4)nc(-c4cccs4)n3)ccc2n1Cc1ccccc1 | 4180 | 17.3 µM
Oc1ccc2ccccc2c1N=Nc1ccc(Br)cc1 | – | > 100 µM
CC(C)=CCc1cc2c(cc1O)OC[C@H]1c3cc4c(cc3O[C@@H]21)OCO4 | – | 39.3 µM
COc1cc2c3c(c1OC)-c1cc4c(cc1CC3(C#N)N(C(=O)c1ccccc1)CC2)OCO4 (stereo unspecified) | – | > 100 µM
CCOC(=O)c1c(-c2ccc(OC)cc2)c(C#N)c2c(C#N)c(N)nn2c1N | 1780 | 4.41 µM
COC(=O)C1=CN(CC2=CC(=O)C(C)=CC2=O)C=C(C(=O)OC)C1c1cccc(OC)c1 | 14400 | 42.2 µM

tested on: SK-OV-3 ovarian; test: inhibition of tumour cell growth, NCI panel, 48 h

Structure (SMILES) | GI50 [µM] | TGI [µM]
Cc1ccc(Nc2oc(-c3ccccc3)nc2[P+](c2ccccc2)(c2ccccc2)c2ccccc2)cc1 | 1.58 | 3.69
CS(=O)(=O)Nc1cc(-c2ccc3ncnc(Nc4c(Cl)ccc5c4OCO5)c3c2)cnc1Cl | 0.131 | 0.759
COc1ccccc1Nc1ncc(-c2ccccc2)o1 | > 25 | > 25
Nc1ccn(C2OC(CO)C(O)C2O)c(=O)n1 (stereo unspecified) | 2.7 | > 500
CN(C)c1ccc(N=Nc2ccccn2)c(O)c1 | 0.42 | > 28.3
O=C(NNc1ccccc1)C(=O)NNc1ccccc1 | > 100 | > 100
Nc1c(C(=O)c2ccccc2)cnn1-c1ccc(F)cc1 | > 25 | > 25
CC1(C)CC(=O)CC(=Nc2ccc([N+](=O)[O-])cc2)C1 | – | > 100
C#Cc1nc(Nc2cc(C)[nH]n2)c2ccccc2n1 | 3.19 | > 100
COC(=O)C(C)NC(=O)C(CCSC)NC(=O)C(Cc1ccccc1)NC(=O)OC(C)(C)C (stereo not drawn) (Boc-Phe-Met-Ala-OMe; configuration not given here) | – | > 100
C/C(=N\NC(=S)N1CCCCCC1)c1ccccn1 | – | 2.28
Cc1nc2cc(Nc3nc(Nc4ccc(F)cc4)nc(-c4cccs4)n3)ccc2n1Cc1ccccc1 | 33.4 | > 100
Oc1ccc2ccccc2c1N=Nc1ccc(Br)cc1 | – | > 100
CC(C)=CCc1cc2c(cc1O)OC[C@H]1c3cc4c(cc3O[C@@H]21)OCO4 | – | > 100
COc1cc2c3c(c1OC)-c1cc4c(cc1CC3(C#N)N(C(=O)c1ccccc1)CC2)OCO4 (stereo unspecified) | – | 44.4
CCOC(=O)c1c(-c2ccc(OC)cc2)c(C#N)c2c(C#N)c(N)nn2c1N | 3.49 | 19.1
COC(=O)C1=CN(CC2=CC(=O)C(C)=CC2=O)C=C(C(=O)OC)C1c1cccc(OC)c1 | 20.3 | 43.1

tested on: UO-31 renal; test: inhibition of tumour cell growth, NCI panel, 48 h

Structure (SMILES) | GI50 [nM] | TGI
Cc1ccc(Nc2oc(-c3ccccc3)nc2[P+](c2ccccc2)(c2ccccc2)c2ccccc2)cc1 | 440 | 1.65 µM
CS(=O)(=O)Nc1cc(-c2ccc3ncnc(Nc4c(Cl)ccc5c4OCO5)c3c2)cnc1Cl | 40.3 | 0.938 µM
COc1ccccc1Nc1ncc(-c2ccccc2)o1 | 13700 | > 25 µM
Nc1ccn(C2OC(CO)C(O)C2O)c(=O)n1 (stereo unspecified) | 715 | –
CN(C)c1ccc(N=Nc2ccccn2)c(O)c1 | 215 | –
O=C(NNc1ccccc1)C(=O)NNc1ccccc1 | > 100000 | > 100 µM
Nc1c(C(=O)c2ccccc2)cnn1-c1ccc(F)cc1 | > 25000 | > 25 µM
CC1(C)CC(=O)CC(=Nc2ccc([N+](=O)[O-])cc2)C1 | – | > 100 µM
C#Cc1nc(Nc2cc(C)[nH]n2)c2ccccc2n1 | 222 | 0.792 µM
COC(=O)C(C)NC(=O)C(CCSC)NC(=O)C(Cc1ccccc1)NC(=O)OC(C)(C)C (stereo not drawn) (Boc-Phe-Met-Ala-OMe; configuration not given here) | – | > 100 µM
C/C(=N\NC(=S)N1CCCCCC1)c1ccccn1 | 134 | 4.01 µM and 4.33 µM
Cc1nc2cc(Nc3nc(Nc4ccc(F)cc4)nc(-c4cccs4)n3)ccc2n1Cc1ccccc1 | 3750 | 17.5 µM
Oc1ccc2ccccc2c1N=Nc1ccc(Br)cc1 | – | > 100 µM
CC(C)=CCc1cc2c(cc1O)OC[C@H]1c3cc4c(cc3O[C@@H]21)OCO4 | – | > 100 µM
COc1cc2c3c(c1OC)-c1cc4c(cc1CC3(C#N)N(C(=O)c1ccccc1)CC2)OCO4 (stereo unspecified) | – | > 94.1 µM
CCOC(=O)c1c(-c2ccc(OC)cc2)c(C#N)c2c(C#N)c(N)nn2c1N | 3490 | 90 µM
COC(=O)C1=CN(CC2=CC(=O)C(C)=CC2=O)C=C(C(=O)OC)C1c1cccc(OC)c1 | 2650 | > 22.5 µM

From PubChem BioAssay (NCI)
